Results: US20220160680A1, “MICROORGANISM MIXTURES, MOLECULES DERIVED THEREFROM, AND METHODS OF USE THEREOF” (B. G. Negev Technologies and Applications Ltd., at …, priority 2018, published 2022)
Where two headings read alike, the source gives them in different places.

What was measured:
V. cholerae VC1 WT = assay: RT-qPCR of QS genes; type: cell-based, Vibrio cholerae; settings: 100 μM
Method: RNA was extracted from wild-type strain VC1 cultured in LB lennox medium supplemented with or without 100 μM Tryptophol acetate or Tyrosol acetate grown to an A600 of approximately 1.0OD using the RNA Protect Bacteria reagent and the RNeasy® Mini Kit (Qiagen, Valencia, Calif.) as per the manufacturer's instructions, including the on-column DNase I digestion described by the manufacturer. Purified RNA was quantified using a Banalyzer (Eppendorf, Hamburg, Germany). cDNA was synthesized from 1 μg of RNA using PrimeScript™ RT reagent kit (Takara, Ohtsu, Japan). The reaction was incubated at 37° C. for 30 min, and 2 μl of cDNA was subjected to RT-PCR analysis on an AB Step One Plus PCR system (Applied Biosystems, Carlsbad, Calif.), using qPCRBIO SyGreen Blue mix Hi-ROX (PCR Biosystems, London, UK). RT-PCR was performed in a 96-well plate (Bio-Rad) in triplicate in a 20 μl volume. The mdh gene was used as an endogenous loading control for the reactions. The amount of transcript was analyzed with StepOnePlus Software V2.3 (Applied Biosystems Carlsbad, Calif.). Mdh forward primer 5′-[…]-3′ (SEQ ID NO: 1); Mdh reverse primer 5′-[…]-3′ (SEQ ID NO: 2); vpsT forward primer 5′-[…]-3′ (SEQ ID NO: 3); vpsT reverse primer 5′-[…]-3′ (SEQ ID NO: 4); ctxA forward primer 5′-[…]-3′ (SEQ ID NO: 5); ctxA reverse primer 5′-[…]-3′ (SEQ ID NO: 6); aphA forward primer 5′-[…]-3′ (SEQ ID NO: 7); aphA reverse primer 5′-[…]-3′ (SEQ ID NO: 8). For Transcriptome libraries construction, we used the purified RNA as described in section Quantitative Real-time PCR (RT-PCR) Analysis. The ribosomal RNA was depleted using MICROBExpress kit (Invitrogen by Thermo Fisher Scientific, Lithuania). The libraries preparation was performed using SMARTer Standard RNA-Seq kit (Takara Bio, USA) according to manufacture instruction. High Throughput Sequencing Analysis was done by Illumina HiSeq 2500, SR 50 bp and barcode Raw data quality values phred+33. the amount and percentage of reads that passed the sequencer's automated quality filter, control mapping value, error rate, and per-base quality scores indicate that the sequencing was of high quality. Only a small percentage of reads were discarded due to trimming and the peak of the length distribution is at the original length of 51. The Software and applications that were used for comparison analyses are Library quality control: FASTQC version 0.11.5; Trim_galore (uses cutadapt version 1.10); Mapping: Tophat2 version 2.1.0 (uses Bowtie2 version 2.2.6); Gene counting: HTseq-count version 0.6.1. For normalization and differential expression analysis, DESeq2 R package version 1.18.1 Input files. The reference genome used in the analysis was of Vibrio cholerae O1 biovar El Tor str. N16961, from the following link: ftp://ftp.ncbi.nlm.nih.gov/genomes/all/GCF/000/006/745/GCF_000006745.1_ASM674v1. Counting was performed using an annotation file downloaded at the following link: ftp://ftp.ncbi.nlm.nih.gov/genomes/all/GCF/000/006/745/GCF_000006745.1_ASM674v1/G CF_000006745.1_ASM674v1_genomic.gtf.gz. All these files can be found in our FTP server, see section 4-Analysis result files.

Peritoneal macrophages = assay: In vitro LPS stimulation of peritoneal macrophages, cytokine ELISA (24 hr); type: cell-based, mice; settings: 100 μM, 0.1 μg/ml LPS
Method: Peritoneal macrophages were harvested using the protocol as described previously (Zhang et al., 2008). Elicited macrophages were harvested from WT mice which had received a 2.5 ml intraperitoneal administration of 3% Brewer thioglycolate broth (Sigma, UK) 72 hr prior collection.
Peritoneal macrophages cells (5×10^5/ml) were cultured with 0.1 μg/ml Lipopolysaccharides (LPS-Escherichia coli serotype 0127:B8, Sigma-Aldrich) and in the presence of 100 μM: tryptophol acetate, tyrosol acetate, dopamine HCl, caffeic acid, or combination of tryptophol acetate and tyrosol acetate, for 24 hr. Following culture, supernatants were collected and stored at −20° C. for the detection of the IL-6 cytokine. For IL-la detection, the inventors induced macrophages lysis by adding fresh RPMI medium and thawing three times.
IL-la and IL-6 levels were measured in peritoneal exudate fluids and LPS-stimulated culture supernatants by ELISA. To detect the cytokines, a R&D ELISA kit (Catalog #MLA00 and DY406, respectively) was used as per the manufacturer's instructions. A standard curve was constructed using serial dilutions of purified IL-la or IL-6 starting at a concentration of 15 ng/ml.

Vibrio cholerae MM920 = assay: Quorum sensing bioluminescence reporter assay; type: cell-based; settings: for IC50: Vibrio cholerae, read-out: IC50 of QS inhibition in V. cholera
Method: Bioluminescence assay was performed with mutant bacteria lacking the nucleotide sequences encoding the relevant autoinducers (AI). Additionally, the bacteria were cloned with bioluminescence reporter plasmids in order to measure their luminescence intensity when quorum sensing gene expression occurs. Ninety-six (96) well microtiter plate assays were used to assess AI activation (agonist) or inhibition (antagonist) of the following bacteria: Agrobacterium tumefaciens, which responds to the C8 autoinducer, and both Vibrio cholerae and Vibrio harveyi, which respond to the (S)-4,5-dihydroxy-2,3-pentanedione (DPD) autoinducer to communicate.
Agrobacterium tumefaciens A136 pCF218 pMV26 culture was grown in Luria-Bertani broth (LB; Miller's broth) supplemented with 25 μg/ml of kanamycin and 4.5 μg/ml of tetracycline at 28-30° C. for 24 h. Both Vibrio harveyi and Vibrio cholerae strains were grown in LB Broth (Lennox) supplemented with tetracycline at 30° C. for 24 h. The overnight cultures were diluted to an absorbance density (OD600) of 0.05 by fresh LB medium. The probiotic yogurt (e.g., kefir)-extracted molecules were tested at gradient concentration in two types of experiments: competition assay in the absence (activation/agonist) or presence (inhibition/antagonist) of 400 pM 3-oxo-C8-HSL (A. tumefaciens A136 pCF218 pMV26) CAI1 (Vibrio Cholerae MM920) 200 nM DPD (Vibrio harveyi MM30) and the OD600 of 0.05 by fresh LB medium. A clear bottom 96-well microliter plate was prepared with wells containing test compounds serially diluted into the LB medium (triplicates). A total of 100 μl of the diluted cells were added to each well. The control sample contained the bacteria and specific AI molecules without the yogurt extracted molecules. Luminescence was measured every 20 min for 19 h with continuous shaking at 30° C., using a Microtiter Plate Reader (Varioskan Flash, Thermo). Average luminescence values divided by OD600 values were plotted against the added compound concentration.
The effect of the Kefir biomass crude extract molecules on the following bacteria, A. tumefaciens A136, V. cholerae MM920 and V. harveyi MM30 were measured as described by Brenier et al. (2008). The overnight culture was diluted to an absorbance density (OD600) of 0.05 by fresh LB medium. A clear bottom 96-well microliter plate was prepared with wells containing test compounds serially diluted into the LB medium (triplicates). A total of 100 μL of the diluted cells was added to each well. The control sample contained the bacteria and specific autoinducer molecules without the kefir crude extracted molecules. Luminescence was measured every 20 min for 19 h with continuous shaking at 30° C., using a Microtiter Plate Reader (Varioskan Flash, Thermo). Two types of experiments were performed: a competition assay in the presence of 400 pM 3-oxo-C8-HSL (A. tumefaciens A136), CAI-1 (V. Cholerae MM920) 200 nM DPD (V. harveyi MM30) and the other in the absence of these AI's to measure agonistic activity of the crude extracted molecules. Average luminescence values divided by OD600 values were plotted against the added compound concentration.

SMILES	aphA expression (V. cholerae VC1 WT; high cell density)	ctxA expression (V. cholerae VC1 WT; high cell density)	hapA expression (V. cholerae VC1 WT; high cell density)	hapR expression (V. cholerae VC1 WT; high cell density)	vpsT expression (V. cholerae VC1 WT; high cell density)	Production of IL-6 (Peritoneal macrophages)	Production of IL-la (Peritoneal macrophages)	IC50 (Vibrio cholerae MM920; high volume)	Effect on QS in V. cholera, high volume (Vibrio cholerae MM920; high volume)	Effect on QS in V. cholera, low volume (Vibrio cholerae MM920)	QS-related genes' expression (V. cholerae VC1 WT)	IC50 (Vibrio cholerae MM920)	Effect on QS in V. cholera, high volume (Vibrio cholerae MM920; high volume, listed as 180 molecule)	Effect on QS in V. cholera, low volume (Vibrio cholerae MM920; listed as 180 molecule)
CC(=O)OCCc1c[nH]c2ccccc12 [Tryptophol acetate]	upregulation	significantly repressed	lower expression	significant downregulation	remarkable upregulation	dramatically reduced	dramatically reduced	12.7 ± 2 µM	inhibits QS	activates QS	–	–	–	–
CC(=O)OCCc1ccc(O)cc1 [Tyrosol acetate]	–	–	–	–	–	dramatically reduced	dramatically reduced	–	totally inhibits QS	activates QS	affect QS-related genes' expression	24.4 ± 2.4 µM	totally inhibited QS	activated QS
